From patent US20130302782A1, “Methods for the Phenotypic Detection of HCV Inhibitor Resistant Subpopulations” (Laboratory Corporation of America Holdings, priority 2011, published 2013) come the findings set out here.

This experiment deals with HCV replicon RTVs containing the NS5B region of Con1 or H77 reference and SDM mutants. The experiment can be described thus: PhenoSense HCV NS5B Assay: luciferase replicon resistance test vector inhibitor susceptibility in Huh7 cells. The class given is cell-based, hepatitis C virus. The settings on record: MT:WT RTV mixtures 0-100% mutant; control inhibitor. Here is the method: RTV RNA was electroporated into a Huh7 cell line, and electroporated cells were incubated in the absence and presence of serially diluted inhibitors. RNA input was monitored by measuring the amount of luciferase activity produced in the electroporated cells at 4 hours post-electroporation. Luciferase activity is expressed as relative light units (RLU). Replication capacity (RC) was determined by evaluating luciferase activity at 72-96 hours postelectroporation in the absence of inhibitor, relative to RNA input and a control reference replicon RTV (Con1). A replication defective Con1 replicon (Con1 polymerase defective) was utilized to determine assay background (data not shown) Inhibitor susceptibility was determined by evaluating the ability of RTVs to replicate in the absence and presence of inhibitor at 72-96 hours post-electroporation. […]
Assay accuracy was assessed by evaluating the HCV polymerase inhibitor susceptibility of RTVs containing the NS5B region of well-characterized subtype 1a (H77) and 1b (Con1) reference sequences and subtype 1a and 1b reference sequences engineered by site-directed mutagenesis (SDM) to contain mutations that confer reduced susceptibility to inhibitors of HCV RdRp (FIG. 3) Inhibitor susceptibility data (IC50-FC and IC95-FC) were analyzed for concordance with phenotypic data reported in the scientific literature. […]

interferon [INF]: the “susceptibility as a function of the proportion of MT RTV within a mixture” value is recorded as “not affected”.
